“Also recorded” adds a separate entry of the source. No end group written: not given here.
What was measured:
DMC1 ΔN [1] = biological target: T1, DMC1 ΔN (Homo sapiens, UniProt Q14565); test: Microscale thermophoresis (MST), BRCA2 peptides and DMC1 ΔN; format: binding; settings: for Kd: MST from initial fluorescence, labelled DMC1 ΔN 150 nM, 10 mM HEPES pH 8.0, 150 mM NaCl, 0.05 % Tween-20, ~22 °C, mean, n = 3 independent experiments
T1 construct: DMC1 ΔN (83-340) were cloned into pHAT4; His6 (TEV-cleavable) (N, cleaved yes); made in house; host or cells: E. coli BL21 (DE3)
T1 sequence (Q14565 83-340): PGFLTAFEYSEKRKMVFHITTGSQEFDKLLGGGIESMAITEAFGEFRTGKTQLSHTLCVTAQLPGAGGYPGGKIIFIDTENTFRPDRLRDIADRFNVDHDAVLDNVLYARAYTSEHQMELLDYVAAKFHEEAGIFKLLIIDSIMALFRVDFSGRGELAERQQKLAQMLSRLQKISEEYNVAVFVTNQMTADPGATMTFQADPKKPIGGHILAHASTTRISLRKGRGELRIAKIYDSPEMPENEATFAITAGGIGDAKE
Method: DMC1 ΔN and DMC1 ΔN loop mutant were labelled in 10 mM HEPES pH 8.0, 150 mM NaCl with an amine reactive fluorescent dye (MonolithTM Protein Labelling Kit BLUE-NHS, Nanotemper GmbH). A serial dilution of titrant (peptide) was prepared in 10 mM HEPES pH 8.0, 150 mM NaCl, 0.05 % Tween-20. The concentration of labelled DMC1 ΔN or DMC1 ΔN loop mutant were constant at 150 nM and the concentration of the interacting peptide was titrated in 1:1 dilutions starting from 750 µM. An equal volume (10 µl) of the serial dilution and of the diluted labelled DMC1 were mixed and loaded in glass capillaries (MonolithTM NT.115 MST Premium Coated Capillaries, Nanotemper GmbH). The initial fluorescence and the thermophoretic mobility were measured on a Monolith NT.115 system (NanoTemper Technologies). The excitation power was 45 % and MST power was 60 % at room temperature (~22 °C). Laser on and off times were set at 5 and 30 seconds, respectively. Data analysis was performed with NT Affinity Analysis software.
As a change in initial fluorescence was detected, SDS denaturation (SD) tests were performed according to the manufacturer’s instructions to determine whether these changes were ligand-induced and whether the data could therefore be used to derive affinity measurements. Briefly, 7 µl of the samples containing the three highest and three lowest concentrations of peptide were mixed with 7 µl of denaturation buffer (4 % SDS, 40 mM DTT). After incubating each for 5 minutes at 95 °C to denature the proteins and subject to brief centrifugation, the samples were loaded onto Premium Coated Capillaries and their initial fluorescence measurements recorded. […] Initial fluorescence readings were used to derive binding affinities.

DMC1 ΔN [2] = biological target: T1, DMC1 ΔN; test: Amylose pull-down of DMC1 ΔN with MBP-BRCA2 fusions; format: binding; settings: recombinant co-expression with MBP-BRCA2 fusion
Description: (§1) For affinity pulldown experiments, MBP-fusions of BRCA2 fragments (Ex14, amino-acids 2387-2420, Ex14-Tr, amino acids 2401-2414, Ex27, amino acids 3270-3315, BRC4, amino acids 1519-1551) were cloned into pMAT11 vectors[54] and co-expressed with DMC1 ΔN, DMC1 ΔN loop mutant (in which DMC1 amino acids 147-GAGGYPG-153 and 178-NVDHDA-183 were replaced by the cognate sequences of RAD51 148-IDRGGGE-154 and 179-GLSGSD-184), RAD51 ΔN, RAD51 ΔN loop mutant (the reverse switch of DMC1 ΔN loop mutant), and RAD51. MBP-fusions and complexes were purified through amylose affinity chromatography.

DMC1 ΔN loop mutant = biological target: T2, DMC1 ΔN loop mutant (Homo sapiens, UniProt Q14565, A148D/A183D/D180S/D182S/G147I/G149R/G153E/H181G/N178G/P152G/V179L/Y151G); test: Amylose pull-down of DMC1 ΔN loop mutant with MBP-BRCA2 fusions; format: binding; settings: recombinant co-expression with MBP-BRCA2 fusion
T2 construct: DMC1 ΔN (83-340) were cloned into pHAT4; made in house
T2 sequence (Q14565 83-340 G147I/A148D/G149R/Y151G/P152G/G153E/N178G/V179L/D180S/H181G/D182S/A183D limits assumed): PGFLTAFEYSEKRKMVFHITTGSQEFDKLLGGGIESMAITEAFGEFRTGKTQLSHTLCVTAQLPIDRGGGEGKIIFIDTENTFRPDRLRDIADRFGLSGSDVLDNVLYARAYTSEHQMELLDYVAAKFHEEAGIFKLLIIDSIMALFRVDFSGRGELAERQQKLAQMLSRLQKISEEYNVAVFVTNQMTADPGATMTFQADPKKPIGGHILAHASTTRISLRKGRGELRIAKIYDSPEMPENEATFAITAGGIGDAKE
Description: as §1

DMC1 ΔN V179E = test: Amylose pull-down of His-DMC1 ΔN V179E with MBP-BRCA2 fusions; format: binding, human; settings: lysates mixed; MBP-BRCA2 fusion; 20 mM Tris pH 8.0, 500 mM KCl, 2 mM DTT
Method: For affinity experiments involving DMC1 ΔN V179E and F85E, MBP-fusions of BRCA2 fragments (Ex14, amino-acids 2387-2420, Ex14-Tr, amino acids 2401-2414, BRC4, amino acids 1519-1551) were cloned into pMAT11 vectors and DMC1 ΔN mutants (V179E or F85E) were cloned into pHAT4 vectors. Lysates of bacterial cultures expressing His6-DMC1 mutants or MBP-BRCA2 constructs were mixed, and complexes were purified through amylose affinity chromatography in 20 mM Tris pH 8.0, 500 mM KCl, 2 mM DTT and eluted using 30 mM D-maltose.

RAD51 ΔN = test: Amylose pull-down of RAD51 ΔN with MBP-BRCA2 fusions; format: binding; settings: recombinant co-expression with MBP-BRCA2 fusion
Description: as §1

RAD51 ΔN loop mutant = test: Amylose pull-down of RAD51 loop mutant with MBP-BRCA2 fusions; settings: RAD51 with DMC1's PhePP-binding loops; MBP-BRCA2 fusion
Description: as §1

Row | Substance | Kd (DMC1 ΔN [1]) [µM] | affinity of Ex14 relative to Ex27 (DMC1 ΔN [1]; MST, DMC1 ΔN) | binding in pull-down (DMC1 ΔN [2]) | binding in pull-down (DMC1 ΔN loop mutant) | binding in pull-down (DMC1 ΔN V179E) | binding in pull-down (RAD51 ΔN) | binding in pull-down (RAD51 ΔN loop mutant)
1 | ATRNEKMRHLITTGRPTKVFVPPFKTKSHFHRVE [Ex14] | 30.4 | over threefold higher affinity than Ex27 | bind | abolished its ability to bind Ex14; also recorded: blocked Ex14- | failed to interact; also recorded: blocked its ability to bind Ex14 | binds selectively to BRCA2 Ex27 rather than Ex14 | failed to
2 | Ex27: BRCA2 exon 27 PhePP peptide, amino acids 3270-3315 (ALDFLSRLPLPPPVSPICTFVSPAAQKAFQPPRSCGTKYETPIKKK; UniProt P51587 3270-3315, looked up, fragment) | > 96.2 | – | not | failed to bind; also recorded: failed to interact with Ex27 | – | binds selectively | failed to

Reference: PMC11436757, “BRCA2 stabilises RAD51 and DMC1 nucleoprotein filaments through a conserved interaction mode” (Nature Communications, 2024)
